Consider one compound from patent US20070244190A1, “Neobritannilactone B and acetyl neobritannilactone B” (priority 2006, published 2007).

For this assay, the system named is AGS cells. Nature of the assay: DNA fragmentation by agarose gel electrophoresis. The format is cell-based, human. To be noted: 15 μM, 24 h, FIG. 4. On the procedure: DNA Extraction and Electrophoresis Analysis. The AGS human cancer cells were harvested, washed with phosphate-buffered saline (PBS), and then lysed with digestion buffer containing 0.5% sarkosyl, 0.5 mg/mL proteinase K, 50 mM tris(hydroxy methyl)aminomethan (pH 8.0), and 10 mM EDTA at 56° C. overnight and treated with RNase A (0.5 μg/mL) for 3 h at 56° C. The DNA was extracted by phenol/chloroform/isoamyl (25:24:1) before loading and was analyzed by 2% agarose gel electrophoresis. The agarose gels were run at 50 V for 120 min in Tris-borate/EDTA electrophoresis buffer (TBE). Approximately 20 μg of DNA was loaded in each well and visualized under UV light, and photographed.
Physiological cell death is characterized by apoptotic morphology, including chromatin condensation, membrane blebbing, internucleosome degradation of DNA, and apoptotic body formation. Nucleosomal DNA ladders visible on agarose gel after staining with ethidium bromide are typical of apoptotic cell samples. To investigate whether the cytotoxic effects of NAB and ANAB observed in AGS cells were due to the presence of apoptotic cell death, cells were treated with […] (0-25 μM) for 24 h and DNA fragmentation analyses were performed. […] FIG. 5.

Take `C=C1C(=O)O[C@H]2/C=C(\C)CC/C=C(\C)C[C@H](OC(C)=O)[C@@H]12` [Compound 4, acetyl neobritannilactone B]: the “DNA fragmentation (DNA ladders)” value is given as “significant DNA ladders were observed”.
